# Results as given in the supplement of paper PMC12463676, “Small-molecule dissolution of stress granules by redox modulation benefits ALS models” (Nature Chemical Biology, 2025).
# Compound: NC(=O)CCCCC1CCSS1 [lipoamide]
# Assay: thermal stability z-score vs DMSO; higher = more thermally stabilized by treatment
# Settings: HeLa; lipoamide concentration 100 µM; arsenate co-treatment: 1 mM arsenate 1 h
# Method: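 Cellular thermal proteome profiling in HeLa cells. Cells were treated with 100 µM lipoamide for 1 h, with or without 1 mM arsenate for a further 1 h, then heated to ten temperatures (37-66.3 °C), and soluble protein was quantified by TMT mass spectrometry relative to 0.1% DMSO controls. The thermal stability score (sum of log2 fold changes minus the abundance score) was transformed to a z-score; mean of n = 3 experiments.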
# 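Further: each temperature applied for 3 min, abundance score taken as mean log2 fold change at the two lowest temperatures, z-score obtained by mean subtraction and division by SD.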
# Sequence of UniProt Q9C0H2 (Q9C0H2 whole entry): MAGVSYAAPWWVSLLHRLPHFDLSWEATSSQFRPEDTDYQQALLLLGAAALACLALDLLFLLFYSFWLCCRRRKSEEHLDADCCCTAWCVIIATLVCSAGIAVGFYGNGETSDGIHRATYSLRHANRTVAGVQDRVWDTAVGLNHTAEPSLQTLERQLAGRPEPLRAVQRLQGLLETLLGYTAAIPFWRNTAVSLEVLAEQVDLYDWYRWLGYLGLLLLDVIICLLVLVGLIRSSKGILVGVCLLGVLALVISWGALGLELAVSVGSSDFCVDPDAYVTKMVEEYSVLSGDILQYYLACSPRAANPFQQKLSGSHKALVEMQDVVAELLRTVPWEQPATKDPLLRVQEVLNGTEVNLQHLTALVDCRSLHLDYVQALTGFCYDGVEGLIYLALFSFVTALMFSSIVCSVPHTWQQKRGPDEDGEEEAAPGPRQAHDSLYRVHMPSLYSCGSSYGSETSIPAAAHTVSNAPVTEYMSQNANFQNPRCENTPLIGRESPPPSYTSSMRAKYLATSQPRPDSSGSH
# Sequence of UniProt Q9HBM0 (Q9HBM0 whole entry): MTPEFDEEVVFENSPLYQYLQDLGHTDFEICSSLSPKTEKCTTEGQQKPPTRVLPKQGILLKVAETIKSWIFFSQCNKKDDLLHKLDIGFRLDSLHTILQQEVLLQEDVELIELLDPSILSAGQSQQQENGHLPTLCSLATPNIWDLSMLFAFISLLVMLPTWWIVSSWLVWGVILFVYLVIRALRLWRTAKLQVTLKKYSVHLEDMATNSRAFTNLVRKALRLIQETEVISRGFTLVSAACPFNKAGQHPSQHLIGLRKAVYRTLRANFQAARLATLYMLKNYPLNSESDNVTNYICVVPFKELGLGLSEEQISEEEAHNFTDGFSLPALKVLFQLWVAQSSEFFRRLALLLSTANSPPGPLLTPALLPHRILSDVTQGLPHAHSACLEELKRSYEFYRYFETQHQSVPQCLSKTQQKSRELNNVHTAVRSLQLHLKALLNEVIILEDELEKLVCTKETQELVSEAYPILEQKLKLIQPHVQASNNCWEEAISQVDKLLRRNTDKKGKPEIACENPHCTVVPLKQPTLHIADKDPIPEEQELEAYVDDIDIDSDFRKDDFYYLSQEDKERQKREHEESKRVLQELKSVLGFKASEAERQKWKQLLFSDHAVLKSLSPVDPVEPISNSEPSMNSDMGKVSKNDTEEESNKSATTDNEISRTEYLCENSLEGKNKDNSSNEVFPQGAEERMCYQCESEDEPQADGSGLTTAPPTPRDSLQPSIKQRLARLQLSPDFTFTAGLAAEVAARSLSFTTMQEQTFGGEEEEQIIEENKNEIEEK
# Sequence of UniProt O15119 (O15119 whole entry): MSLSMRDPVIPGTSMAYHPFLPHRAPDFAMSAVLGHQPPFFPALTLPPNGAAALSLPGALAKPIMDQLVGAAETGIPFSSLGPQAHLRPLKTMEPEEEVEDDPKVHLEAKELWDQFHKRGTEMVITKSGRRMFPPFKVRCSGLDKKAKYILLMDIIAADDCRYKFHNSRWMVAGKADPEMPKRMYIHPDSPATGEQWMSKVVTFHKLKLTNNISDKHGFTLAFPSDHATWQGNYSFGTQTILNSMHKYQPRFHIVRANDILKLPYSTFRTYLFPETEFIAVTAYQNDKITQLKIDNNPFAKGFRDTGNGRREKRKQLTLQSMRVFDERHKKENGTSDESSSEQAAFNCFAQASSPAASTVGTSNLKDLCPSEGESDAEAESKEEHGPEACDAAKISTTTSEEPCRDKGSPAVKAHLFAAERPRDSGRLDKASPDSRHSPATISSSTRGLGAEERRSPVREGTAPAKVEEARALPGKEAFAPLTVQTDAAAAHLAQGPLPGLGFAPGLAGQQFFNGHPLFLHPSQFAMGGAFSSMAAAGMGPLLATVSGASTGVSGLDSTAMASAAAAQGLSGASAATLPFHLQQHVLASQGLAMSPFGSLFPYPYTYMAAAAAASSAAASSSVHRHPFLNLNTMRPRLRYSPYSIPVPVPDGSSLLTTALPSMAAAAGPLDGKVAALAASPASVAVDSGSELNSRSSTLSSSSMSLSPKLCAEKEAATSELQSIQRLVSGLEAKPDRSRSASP
# Sequence of UniProt Q5T280 (Q5T280 whole entry): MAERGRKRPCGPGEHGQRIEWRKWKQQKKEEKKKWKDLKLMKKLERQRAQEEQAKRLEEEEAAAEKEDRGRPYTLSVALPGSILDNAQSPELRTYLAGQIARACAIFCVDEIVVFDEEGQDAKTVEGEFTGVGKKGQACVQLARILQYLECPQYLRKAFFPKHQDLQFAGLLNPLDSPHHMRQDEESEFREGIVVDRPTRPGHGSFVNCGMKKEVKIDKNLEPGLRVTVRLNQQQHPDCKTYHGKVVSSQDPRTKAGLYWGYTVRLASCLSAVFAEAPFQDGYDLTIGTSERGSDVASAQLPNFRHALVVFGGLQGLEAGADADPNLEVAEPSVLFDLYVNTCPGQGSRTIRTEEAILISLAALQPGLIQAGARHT
# Sequence of UniProt Q9HB71 (Q9HB71 whole entry): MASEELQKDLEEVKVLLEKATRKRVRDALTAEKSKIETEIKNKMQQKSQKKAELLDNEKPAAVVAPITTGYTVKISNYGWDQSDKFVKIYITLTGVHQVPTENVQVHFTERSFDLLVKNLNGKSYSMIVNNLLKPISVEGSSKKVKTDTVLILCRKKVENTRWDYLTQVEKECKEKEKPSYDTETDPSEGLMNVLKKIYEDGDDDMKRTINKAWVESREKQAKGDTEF
# Sequence of UniProt P54098 (P54098 whole entry): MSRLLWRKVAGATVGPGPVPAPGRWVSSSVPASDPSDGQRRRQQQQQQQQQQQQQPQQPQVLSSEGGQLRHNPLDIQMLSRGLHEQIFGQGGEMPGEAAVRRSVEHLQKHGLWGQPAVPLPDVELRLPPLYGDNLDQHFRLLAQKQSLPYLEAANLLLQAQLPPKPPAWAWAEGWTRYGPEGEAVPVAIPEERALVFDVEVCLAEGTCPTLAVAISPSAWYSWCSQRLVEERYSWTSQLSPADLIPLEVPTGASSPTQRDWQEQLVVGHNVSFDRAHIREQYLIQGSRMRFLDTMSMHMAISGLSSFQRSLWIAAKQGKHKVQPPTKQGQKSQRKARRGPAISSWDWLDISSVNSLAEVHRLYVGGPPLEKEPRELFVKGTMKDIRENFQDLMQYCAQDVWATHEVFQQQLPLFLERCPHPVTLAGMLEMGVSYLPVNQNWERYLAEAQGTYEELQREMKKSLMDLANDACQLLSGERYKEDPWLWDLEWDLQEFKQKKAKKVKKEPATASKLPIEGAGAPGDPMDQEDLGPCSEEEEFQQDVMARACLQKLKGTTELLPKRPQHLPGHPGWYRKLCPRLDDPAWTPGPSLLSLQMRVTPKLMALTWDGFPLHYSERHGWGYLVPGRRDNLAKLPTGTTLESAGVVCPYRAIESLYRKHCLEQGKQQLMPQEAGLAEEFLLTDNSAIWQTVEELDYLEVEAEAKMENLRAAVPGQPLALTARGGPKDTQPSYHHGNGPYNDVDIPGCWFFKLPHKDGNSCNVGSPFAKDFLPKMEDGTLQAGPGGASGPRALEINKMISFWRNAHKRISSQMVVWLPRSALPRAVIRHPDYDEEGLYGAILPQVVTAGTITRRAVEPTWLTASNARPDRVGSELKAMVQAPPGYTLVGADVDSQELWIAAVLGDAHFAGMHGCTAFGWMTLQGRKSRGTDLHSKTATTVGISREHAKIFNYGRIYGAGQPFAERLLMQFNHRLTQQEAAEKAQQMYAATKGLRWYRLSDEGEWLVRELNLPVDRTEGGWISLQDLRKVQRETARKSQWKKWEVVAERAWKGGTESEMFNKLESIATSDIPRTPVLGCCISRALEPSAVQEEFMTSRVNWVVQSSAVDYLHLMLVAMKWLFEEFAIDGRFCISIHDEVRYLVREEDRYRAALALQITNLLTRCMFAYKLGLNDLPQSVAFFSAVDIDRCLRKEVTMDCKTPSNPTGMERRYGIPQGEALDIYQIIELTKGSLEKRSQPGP
# Sequence of UniProt Q8TAA5 (Q8TAA5 whole entry): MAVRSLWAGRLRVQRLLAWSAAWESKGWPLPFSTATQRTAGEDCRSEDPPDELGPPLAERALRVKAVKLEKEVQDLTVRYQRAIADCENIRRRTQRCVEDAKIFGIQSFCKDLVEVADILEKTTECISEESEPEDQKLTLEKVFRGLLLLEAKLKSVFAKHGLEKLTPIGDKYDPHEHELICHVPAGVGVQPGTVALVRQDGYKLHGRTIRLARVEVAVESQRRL
# Sequence of UniProt P52655 (P52655 whole entry): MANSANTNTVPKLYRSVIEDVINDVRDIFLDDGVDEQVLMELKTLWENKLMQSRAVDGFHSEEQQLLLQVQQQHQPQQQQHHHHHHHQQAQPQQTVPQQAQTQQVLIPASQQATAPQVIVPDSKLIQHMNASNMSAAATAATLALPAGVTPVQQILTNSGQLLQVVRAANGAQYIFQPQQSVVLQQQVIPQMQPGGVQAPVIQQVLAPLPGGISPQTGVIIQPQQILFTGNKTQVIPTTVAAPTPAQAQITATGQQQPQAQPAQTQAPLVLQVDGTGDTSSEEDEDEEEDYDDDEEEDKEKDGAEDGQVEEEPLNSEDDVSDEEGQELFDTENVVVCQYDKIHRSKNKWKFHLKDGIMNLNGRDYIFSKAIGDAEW
# Sequence of UniProt Q9NX40 (Q9NX40 whole entry): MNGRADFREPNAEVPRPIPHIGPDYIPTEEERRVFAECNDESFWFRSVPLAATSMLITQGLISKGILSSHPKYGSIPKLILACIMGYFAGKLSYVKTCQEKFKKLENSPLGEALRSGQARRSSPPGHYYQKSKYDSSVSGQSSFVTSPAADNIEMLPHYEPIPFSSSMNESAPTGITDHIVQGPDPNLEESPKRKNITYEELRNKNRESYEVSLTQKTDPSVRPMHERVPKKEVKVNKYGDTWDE
# Sequence of UniProt P04183 (P04183 whole entry): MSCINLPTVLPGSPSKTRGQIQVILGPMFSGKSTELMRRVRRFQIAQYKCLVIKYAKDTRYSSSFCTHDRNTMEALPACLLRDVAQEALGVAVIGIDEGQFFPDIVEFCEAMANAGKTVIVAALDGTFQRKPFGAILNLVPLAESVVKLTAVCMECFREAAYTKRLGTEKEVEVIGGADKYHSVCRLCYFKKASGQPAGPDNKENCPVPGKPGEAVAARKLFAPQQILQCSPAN
row,Target,thermal stability z-score
1,ZFC3H1 (UniProt O60293),0.164
2,ATRN (UniProt O75882),0.622
3,CYFIP2 (UniProt Q96F07),0.325
4,DDX1 (UniProt Q92499),0.085
5,SCAMP3 (UniProt O14828),0.525
6,CHUK (UniProt O15111),0.887
7,CDK2AP1 (UniProt O14519),-0.0893
8,MINPP1 (UniProt Q9UNW1),-3.92
9,PI4K2B (UniProt Q8TCG2),-0.541
10,VPS4A (UniProt Q9UN37),-0.367
11,UBXN8 (UniProt O00124),-1.43
12,GRPEL2 (UniProt Q8TAA5),-0.105
13,SOD1 (UniProt P00441),-0.57
14,CTTN (UniProt Q14247),0.536
15,TDRD3 (UniProt Q9H7E2),-0.448
16,C20ORF24 (UniProt Q9BUV8),0.799
17,OCIAD1 (UniProt Q9NX40),0.0741
18,MRPL28 (UniProt Q13084),-0.527
19,RNASEH2A (UniProt O75792),0.0654
20,ASPH (UniProt Q12797),-2.27
21,PRPF6 (UniProt O94906),-0.136
22,COA1 (UniProt Q9GZY4),0.229
23,PAXIP1 (UniProt Q6ZW49),-0.0199
24,COG4 (UniProt Q9H9E3),-0.919

row,Target,thermal stability z-score
1,MRPS11 (UniProt P82912),0.302
2,MRPL10 (UniProt Q7Z7H8),0.127
3,UBR7 (UniProt Q8N806),-0.392
4,MIF4GD (UniProt A9UHW6),0.658
5,FEM1B (UniProt Q9UK73),0.128
6,LRP6 (UniProt O75581),-2.59
7,GTPBP4 (UniProt Q9BZE4),-0.6
8,AFTPH (UniProt Q6ULP2),-0.18
9,TK1 (UniProt P04183),0.233
10,AGPAT2 (UniProt O15120),-0.401
11,ARNT (UniProt P27540),0.605
12,VEZT (UniProt Q9HBM0),-0.758
13,C5ORF22 (UniProt Q49AR2),-0.259
14,OXCT1 (UniProt P55809),-0.159
15,NIF3L1 (UniProt Q9GZT8),-0.14
16,PWP1 (UniProt Q13610),-0.0751
17,C9ORF114 (UniProt Q5T280),0.288
18,TTN (UniProt Q8WZ42),0.609
19,NKIRAS2 (UniProt Q9NYR9),0.0549
20,GCSH (UniProt P23434),0.134
21,GOLPH3L (UniProt Q9H4A5),0.105
22,TBL1X (UniProt O60907),0.835
23,TM7SF3 (UniProt Q9NS93),-0.0176
24,RPL5 (UniProt P46777),0.172

row,Target,thermal stability z-score
1,CACYBP (UniProt Q9HB71),0.276
2,TAP2 (UniProt Q03519),-0.828
3,VAMP7 (UniProt P51809),-0.512
4,ITGA5 (UniProt P08648),0.408
5,C11ORF73 (UniProt Q53FT3),0.0228
6,TTI1 (UniProt O43156),0.86
7,PSAT1 (UniProt Q9Y617),0.659
8,TBX3 (UniProt O15119),0.163
9,TMEM41A (UniProt Q96HV5),0.652
10,GTF2A1 (UniProt P52655),1.26
11,RSL1D1 (UniProt O76021),0.414
12,CD44 (UniProt P16070),0.358
13,TTYH3 (UniProt Q9C0H2),0.027
14,CASP6 (UniProt P55212),1.05
15,TBC1D10B (UniProt Q4KMP7),-0.825
16,POLG (UniProt P54098),0.0493
17,ALYREF (UniProt Q86V81),0.585
18,CHD9 (UniProt Q3L8U1),-0.0359
19,MYO19 (UniProt Q96H55),0.0427
20,ANP32E (UniProt Q9BTT0),-1.1
21,PPP1R13L (UniProt Q8WUF5),-0.367
22,PLD1 (UniProt Q13393),-0.0197
23,SH3RF1 (UniProt Q7Z6J0),-0.0346

# Same assay, conditions: HeLa; lipoamide concentration 100 µM; arsenate co-treatment: none
row,Target,thermal stability z-score
1,ZFC3H1 (UniProt O60293),-0.0359
2,ATRN (UniProt O75882),-0.532
3,CYFIP2 (UniProt Q96F07),0.825
4,DDX1 (UniProt Q92499),0.274
5,SCAMP3 (UniProt O14828),0.319
6,CHUK (UniProt O15111),0.727
7,CDK2AP1 (UniProt O14519),-0.224
8,MINPP1 (UniProt Q9UNW1),-4.05
9,PI4K2B (UniProt Q8TCG2),0.209
10,VPS4A (UniProt Q9UN37),-0.472
11,UBXN8 (UniProt O00124),-0.528
12,GRPEL2 (UniProt Q8TAA5),-0.123
13,SOD1 (UniProt P00441),-0.258
14,CTTN (UniProt Q14247),0.451
15,TDRD3 (UniProt Q9H7E2),0.0394
16,C20ORF24 (UniProt Q9BUV8),0.361
17,OCIAD1 (UniProt Q9NX40),-0.143
18,MRPL28 (UniProt Q13084),-0.172
19,RNASEH2A (UniProt O75792),0.493
20,ASPH (UniProt Q12797),-2.04
21,PRPF6 (UniProt O94906),-0.0563
22,COA1 (UniProt Q9GZY4),0.587
23,PAXIP1 (UniProt Q6ZW49),0.255
24,COG4 (UniProt Q9H9E3),-1.44

row,Target,thermal stability z-score
1,MRPS11 (UniProt P82912),-0.354
2,MRPL10 (UniProt Q7Z7H8),0.224
3,UBR7 (UniProt Q8N806),-0.575
4,MIF4GD (UniProt A9UHW6),0.0749
5,FEM1B (UniProt Q9UK73),0.146
6,LRP6 (UniProt O75581),-1.1
7,GTPBP4 (UniProt Q9BZE4),0.00531
8,AFTPH (UniProt Q6ULP2),0.15
9,TK1 (UniProt P04183),0.418
10,AGPAT2 (UniProt O15120),0.198
11,ARNT (UniProt P27540),0.794
12,VEZT (UniProt Q9HBM0),-0.707
13,C5ORF22 (UniProt Q49AR2),0.324
14,OXCT1 (UniProt P55809),-0.108
15,NIF3L1 (UniProt Q9GZT8),-0.407
16,PWP1 (UniProt Q13610),-0.259
17,C9ORF114 (UniProt Q5T280),0.265
18,TTN (UniProt Q8WZ42),0.578
19,NKIRAS2 (UniProt Q9NYR9),-0.0133
20,GCSH (UniProt P23434),-0.126
21,GOLPH3L (UniProt Q9H4A5),-1.21
22,TBL1X (UniProt O60907),-0.0254
23,TM7SF3 (UniProt Q9NS93),-0.523
24,RPL5 (UniProt P46777),0.132

row,Target,thermal stability z-score
1,CACYBP (UniProt Q9HB71),0.0201
2,TAP2 (UniProt Q03519),-0.526
3,VAMP7 (UniProt P51809),-0.444
4,ITGA5 (UniProt P08648),0.203
5,C11ORF73 (UniProt Q53FT3),0.0059
6,TTI1 (UniProt O43156),1.21
7,PSAT1 (UniProt Q9Y617),0.402
8,TBX3 (UniProt O15119),-0.0268
9,TMEM41A (UniProt Q96HV5),0.936
10,GTF2A1 (UniProt P52655),1.56
11,RSL1D1 (UniProt O76021),-0.108
12,CD44 (UniProt P16070),0.287
13,TTYH3 (UniProt Q9C0H2),0.0475
14,CASP6 (UniProt P55212),1.33
15,TBC1D10B (UniProt Q4KMP7),-0.121
16,POLG (UniProt P54098),0.0533
17,ALYREF (UniProt Q86V81),0.0941
18,CHD9 (UniProt Q3L8U1),-0.0662
19,MYO19 (UniProt Q96H55),0.347
20,ANP32E (UniProt Q9BTT0),0.32
21,PPP1R13L (UniProt Q8WUF5),-0.132
22,PLD1 (UniProt Q13393),0.0638
23,SH3RF1 (UniProt Q7Z6J0),0.00665

# Compound: O=[As]([O-])(O)O.[K+] [potassium arsenate]
# Assay: as above
# Settings: HeLa; arsenate concentration 1 mM
# Method: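 Cellular thermal proteome profiling in HeLa cells treated with 1 mM arsenate for 1 h (DMSO pretreatment), heated to ten temperatures (37-66.3 °C). Soluble protein was quantified by TMT mass spectrometry relative to DMSO controls; the thermal stability score was transformed to a z-score; mean of n = 3 experiments.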
row,Target,thermal stability z-score
1,ZFC3H1 (UniProt O60293),-0.434
2,ATRN (UniProt O75882),0.705
3,CYFIP2 (UniProt Q96F07),0.312
4,DDX1 (UniProt Q92499),-0.304
5,SCAMP3 (UniProt O14828),-0.277
6,CHUK (UniProt O15111),0.578
7,CDK2AP1 (UniProt O14519),-0.113
8,MINPP1 (UniProt Q9UNW1),-0.105
9,PI4K2B (UniProt Q8TCG2),-0.451
10,VPS4A (UniProt Q9UN37),-0.19
11,UBXN8 (UniProt O00124),-0.0404
12,GRPEL2 (UniProt Q8TAA5),0.107
13,SOD1 (UniProt P00441),-0.236
14,CTTN (UniProt Q14247),0.2
15,TDRD3 (UniProt Q9H7E2),-0.796
16,C20ORF24 (UniProt Q9BUV8),-0.477
17,OCIAD1 (UniProt Q9NX40),-0.448
18,MRPL28 (UniProt Q13084),-0.154
19,RNASEH2A (UniProt O75792),0.138
20,ASPH (UniProt Q12797),0.014
21,PRPF6 (UniProt O94906),-0.171
22,COA1 (UniProt Q9GZY4),0.234
23,PAXIP1 (UniProt Q6ZW49),0.00378
24,COG4 (UniProt Q9H9E3),-0.419

row,Target,thermal stability z-score
1,MRPS11 (UniProt P82912),0.34
2,MRPL10 (UniProt Q7Z7H8),0.0461
3,UBR7 (UniProt Q8N806),0.457
4,MIF4GD (UniProt A9UHW6),-0.165
5,FEM1B (UniProt Q9UK73),-1.27
6,LRP6 (UniProt O75581),-0.531
7,GTPBP4 (UniProt Q9BZE4),-1
8,AFTPH (UniProt Q6ULP2),0.102
9,TK1 (UniProt P04183),-0.307
10,AGPAT2 (UniProt O15120),0.392
11,ARNT (UniProt P27540),0.561
12,VEZT (UniProt Q9HBM0),-0.349
13,C5ORF22 (UniProt Q49AR2),1.13
14,OXCT1 (UniProt P55809),-1.12
15,NIF3L1 (UniProt Q9GZT8),0.115
16,PWP1 (UniProt Q13610),-2.52
17,C9ORF114 (UniProt Q5T280),-0.288
18,TTN (UniProt Q8WZ42),0.121
19,NKIRAS2 (UniProt Q9NYR9),0.137
20,GCSH (UniProt P23434),-1.45
21,GOLPH3L (UniProt Q9H4A5),-0.58
22,TBL1X (UniProt O60907),0.341
23,TM7SF3 (UniProt Q9NS93),0.533
24,RPL5 (UniProt P46777),-0.481

row,Target,thermal stability z-score
1,CACYBP (UniProt Q9HB71),0.37
2,TAP2 (UniProt Q03519),0.366
3,VAMP7 (UniProt P51809),-0.234
4,ITGA5 (UniProt P08648),0.211
5,C11ORF73 (UniProt Q53FT3),-0.162
6,TTI1 (UniProt O43156),1.78
7,PSAT1 (UniProt Q9Y617),-0.653
8,TBX3 (UniProt O15119),0.206
9,TMEM41A (UniProt Q96HV5),0.885
10,GTF2A1 (UniProt P52655),1.02
11,RSL1D1 (UniProt O76021),-0.48
12,CD44 (UniProt P16070),0.197
13,TTYH3 (UniProt Q9C0H2),-0.648
14,CASP6 (UniProt P55212),0.158
15,TBC1D10B (UniProt Q4KMP7),-0.503
16,POLG (UniProt P54098),0.0154
17,ALYREF (UniProt Q86V81),-0.0562
18,CHD9 (UniProt Q3L8U1),0.384
19,MYO19 (UniProt Q96H55),-0.139
20,ANP32E (UniProt Q9BTT0),-4
21,PPP1R13L (UniProt Q8WUF5),-0.21
22,PLD1 (UniProt Q13393),0.0184
23,SH3RF1 (UniProt Q7Z6J0),-0.327
